Assay results from ChEMBL document CHEMBL1201862, “PubChem BioAssay data set” (2004).
Activity calls are given as the source filed them.

What was measured:
[1] = target: Latent membrane protein 1 (Human herpesvirus 4 (strain B95-8), UniProt P03230); assay: LMP1 TES1 pathway selectivity over dsRED control – imaging, HEK293T, dual-color eGFP/dsRED, cherry-picks, selectivity assay for LMP1 NF-kB inhibitor project, dose response (AID 588398); format: functional, cell-based
[2] = target: T1, Sentrin-specific protease 6 (Homo sapiens, UniProt Q9GZR1); assay: SAR Analysis of small molecule inhibitors of Sentrin-specific protease 6 (SENP6) using a Luminescent assay. [Related pubchem assays (depositor defined):AID2582, AID2599]; format: functional
T1 sequence (Q9GZR1 whole entry): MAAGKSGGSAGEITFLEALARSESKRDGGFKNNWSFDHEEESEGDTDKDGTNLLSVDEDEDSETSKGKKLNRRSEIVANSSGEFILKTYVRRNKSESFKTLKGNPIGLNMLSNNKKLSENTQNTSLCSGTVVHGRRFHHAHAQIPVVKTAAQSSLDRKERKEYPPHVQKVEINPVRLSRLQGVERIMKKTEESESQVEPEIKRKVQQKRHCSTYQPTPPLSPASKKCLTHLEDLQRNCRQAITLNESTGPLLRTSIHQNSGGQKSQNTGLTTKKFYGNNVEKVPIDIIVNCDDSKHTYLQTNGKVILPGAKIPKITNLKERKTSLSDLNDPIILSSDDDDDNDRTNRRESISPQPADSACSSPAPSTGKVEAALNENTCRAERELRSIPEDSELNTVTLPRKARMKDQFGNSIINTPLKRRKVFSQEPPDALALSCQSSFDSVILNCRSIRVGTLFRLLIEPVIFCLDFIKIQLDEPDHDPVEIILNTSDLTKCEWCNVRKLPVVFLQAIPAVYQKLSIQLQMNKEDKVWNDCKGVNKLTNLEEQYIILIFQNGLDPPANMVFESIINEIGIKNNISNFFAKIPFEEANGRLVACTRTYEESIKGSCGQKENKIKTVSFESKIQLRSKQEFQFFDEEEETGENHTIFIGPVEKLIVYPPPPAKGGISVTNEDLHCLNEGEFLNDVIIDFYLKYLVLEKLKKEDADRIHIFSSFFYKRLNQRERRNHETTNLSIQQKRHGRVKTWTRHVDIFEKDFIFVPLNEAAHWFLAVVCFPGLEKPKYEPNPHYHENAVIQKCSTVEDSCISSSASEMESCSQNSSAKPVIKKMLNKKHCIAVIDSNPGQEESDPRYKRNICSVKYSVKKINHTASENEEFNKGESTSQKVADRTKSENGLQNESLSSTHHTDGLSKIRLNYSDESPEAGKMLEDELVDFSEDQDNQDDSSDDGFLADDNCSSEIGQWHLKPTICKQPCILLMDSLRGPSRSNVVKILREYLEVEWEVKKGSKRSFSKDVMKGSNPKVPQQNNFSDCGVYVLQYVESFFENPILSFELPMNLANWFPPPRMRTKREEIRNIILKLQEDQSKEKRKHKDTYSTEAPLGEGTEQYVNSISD

[3] = target: T2, Sentrin-specific protease 7 (Homo sapiens, UniProt Q9BQF6); assay: inhibition of human SENP7 cleavage activity – biochemical, luminescence, SAR follow-up (AID 504497); format: functional
T2 sequence (Q9BQF6 whole entry): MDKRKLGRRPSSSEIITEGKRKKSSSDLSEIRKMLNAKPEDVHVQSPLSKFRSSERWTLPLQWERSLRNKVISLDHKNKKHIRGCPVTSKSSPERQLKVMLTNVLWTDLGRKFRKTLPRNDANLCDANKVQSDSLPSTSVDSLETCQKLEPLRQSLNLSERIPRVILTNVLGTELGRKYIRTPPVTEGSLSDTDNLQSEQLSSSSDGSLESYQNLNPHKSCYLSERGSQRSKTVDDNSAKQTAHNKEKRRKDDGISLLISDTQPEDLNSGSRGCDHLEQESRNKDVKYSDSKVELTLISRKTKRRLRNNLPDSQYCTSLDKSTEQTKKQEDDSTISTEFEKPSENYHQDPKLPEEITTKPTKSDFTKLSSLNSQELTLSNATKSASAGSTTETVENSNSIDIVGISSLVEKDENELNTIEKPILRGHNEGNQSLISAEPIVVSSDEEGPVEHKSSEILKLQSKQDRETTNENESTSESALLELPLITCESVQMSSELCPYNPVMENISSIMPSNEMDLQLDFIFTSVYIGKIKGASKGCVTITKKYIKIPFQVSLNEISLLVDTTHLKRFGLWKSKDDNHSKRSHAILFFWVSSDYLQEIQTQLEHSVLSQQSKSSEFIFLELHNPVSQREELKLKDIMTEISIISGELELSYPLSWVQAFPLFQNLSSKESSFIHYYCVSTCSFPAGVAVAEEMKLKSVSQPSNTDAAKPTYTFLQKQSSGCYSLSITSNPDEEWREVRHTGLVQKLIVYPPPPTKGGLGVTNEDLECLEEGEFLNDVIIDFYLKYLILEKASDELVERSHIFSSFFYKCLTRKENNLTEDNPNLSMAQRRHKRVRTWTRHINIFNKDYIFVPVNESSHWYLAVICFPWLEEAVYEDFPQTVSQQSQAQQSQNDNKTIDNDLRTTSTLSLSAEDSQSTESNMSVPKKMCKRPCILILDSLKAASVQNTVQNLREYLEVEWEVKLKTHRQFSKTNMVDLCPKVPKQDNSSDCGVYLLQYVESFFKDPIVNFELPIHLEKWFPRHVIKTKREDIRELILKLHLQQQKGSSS

Caspase-3 [4] = target: T3, Caspase-3 (Homo sapiens, UniProt P42574); assay: SAR Analysis of small molecule inhibitors of Sentrin-specific proteases (SENPs) using a Caspase-3 Selectivity assay. [Related pubchem assays (depositor defined):AID2540, AID2599, AID434973, AID489001]; format: functional
T3 sequence (P42574 whole entry): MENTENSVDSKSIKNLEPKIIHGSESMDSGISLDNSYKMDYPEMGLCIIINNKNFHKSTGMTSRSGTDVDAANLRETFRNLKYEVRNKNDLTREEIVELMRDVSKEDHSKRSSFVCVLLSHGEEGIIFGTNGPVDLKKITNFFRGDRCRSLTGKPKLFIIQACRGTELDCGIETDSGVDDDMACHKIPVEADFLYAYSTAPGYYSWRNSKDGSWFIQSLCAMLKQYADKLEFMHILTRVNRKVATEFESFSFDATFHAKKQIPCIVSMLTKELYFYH

[5] = target: T1, Sentrin-specific protease 6; assay: inhibition of human SENP6 catalytic domain – biochemical, luminescence, set 2, SAR follow-up (AID 588598); format: functional
[6] = target: T4, Sentrin-specific protease 8 (Homo sapiens, UniProt Q96LD8); assay: inhibition of human SENP8 cleavage activity – biochemical, luminescence, SAR follow-up (AID 504501); format: functional
T4 sequence (Q96LD8 whole entry): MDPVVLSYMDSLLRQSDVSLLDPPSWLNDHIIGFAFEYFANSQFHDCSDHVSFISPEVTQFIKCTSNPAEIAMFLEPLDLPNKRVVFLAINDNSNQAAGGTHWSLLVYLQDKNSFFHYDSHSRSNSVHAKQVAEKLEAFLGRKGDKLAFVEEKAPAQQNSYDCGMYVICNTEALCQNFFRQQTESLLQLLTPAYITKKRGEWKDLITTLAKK

[7] = target: T4, Sentrin-specific protease 8; assay: inhibition of sentrin protease 8 – biochemical, luminescence, set 2, SAR follow-up (AID 588601); format: functional
Caspase-3 [8] = target: T3, Caspase-3; assay: inhibition of recombinant caspase-3 activity – biochemical, luminescence, set 2, selectivity assay for SENP protease inhibitor project, SAR follow-up (AID 588599); format: functional
HEK293 [9] = assay: optical interference in Abeta FP readout, dose response, artefact control for IDE activator project, biochemical, fluorescence polarization (AID 588442); format: functional, cell-based; conditions: Homo sapiens
HEK293 [10] = assay: membrane integrity loss in HEK cells – cell-based, fluorescence, cytotoxicity control for IDE activator project, dose response (AID 588440); format: functional; conditions: Homo sapiens;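 note: cytotoxicity by LDH release measuring loss of membrane integrity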
Insulin-degrading enzyme [11] = target: T5, Insulin-degrading enzyme (Homo sapiens, UniProt P14735); assay: recombinant IDE activation, cell-free – biochemical, fluorescence polarization, counter-screen for IDE activator project, dose response (AID 588681)
T5 sequence (P14735 whole entry): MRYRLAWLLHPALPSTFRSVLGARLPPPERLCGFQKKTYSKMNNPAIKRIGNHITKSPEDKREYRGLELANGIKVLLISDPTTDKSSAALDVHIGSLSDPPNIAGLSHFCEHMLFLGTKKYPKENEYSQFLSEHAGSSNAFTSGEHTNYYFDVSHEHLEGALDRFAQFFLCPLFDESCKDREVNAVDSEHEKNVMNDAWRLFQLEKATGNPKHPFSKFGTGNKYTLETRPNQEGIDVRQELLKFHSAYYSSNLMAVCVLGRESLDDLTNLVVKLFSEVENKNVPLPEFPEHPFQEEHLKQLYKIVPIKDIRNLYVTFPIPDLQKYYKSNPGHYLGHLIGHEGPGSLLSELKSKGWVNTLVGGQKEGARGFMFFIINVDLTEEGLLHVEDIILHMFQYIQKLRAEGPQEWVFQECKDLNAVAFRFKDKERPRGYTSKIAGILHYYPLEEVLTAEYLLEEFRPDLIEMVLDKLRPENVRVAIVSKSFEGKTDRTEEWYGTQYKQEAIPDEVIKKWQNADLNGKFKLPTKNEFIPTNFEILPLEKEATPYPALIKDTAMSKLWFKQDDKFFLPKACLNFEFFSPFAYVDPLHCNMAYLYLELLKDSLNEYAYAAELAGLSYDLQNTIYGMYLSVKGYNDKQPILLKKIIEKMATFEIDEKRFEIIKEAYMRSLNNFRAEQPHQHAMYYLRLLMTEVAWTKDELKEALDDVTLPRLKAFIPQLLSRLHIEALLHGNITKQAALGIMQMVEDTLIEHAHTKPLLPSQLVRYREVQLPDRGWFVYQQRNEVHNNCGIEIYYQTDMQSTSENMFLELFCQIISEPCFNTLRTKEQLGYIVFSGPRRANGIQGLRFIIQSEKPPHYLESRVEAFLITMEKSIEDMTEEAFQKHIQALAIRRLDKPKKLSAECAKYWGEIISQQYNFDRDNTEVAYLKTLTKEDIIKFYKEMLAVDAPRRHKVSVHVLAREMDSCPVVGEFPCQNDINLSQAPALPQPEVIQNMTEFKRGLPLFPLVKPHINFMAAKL

Insulin-degrading enzyme [12] = target: T5, Insulin-degrading enzyme; assay: cellular IDE activation of Abeta substrate cleavage – fluorescence polarization, HEK cells, dose response (AID 588439); format: functional, cell-based
[13] = blockers of bursicon-stimulated LGR2 cAMP reporter – cell-based, HEK293, CRE-luciferase reporter, cherry pick, set 2, dose response (AID 743343); format: functional;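 note: transfected cells were stimulated with diluted bursicon conditioned medium after compound addition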
[14] = viability loss in HEK293T cells – cell-based, cherry-picks, cytotoxicity control for HIV Vif inhibitor project, dose response (AID 652208); format: functional
[15] = non-specific 3'UTR reporter inhibition in Clone20-Shn3RL – cell-based, Renilla luciferase, cherry-picked, counter-screen for Shn3 inhibitor project, dose response (AID 624133); format: functional
[16] = loss of viability in HepG2 cells – cell-based, CellTiter-Glo, cherry-picked, cytotoxicity control for Shn3 inhibitor project, dose response (AID 624134); format: functional
[17] = toxicity toward HepG2 liver cells – cell-based, plate reader, cherry-pick, antagonist series, cytotoxicity control, dose response (AID 743416); format: functional
[18] = viability loss in HEK293 cells – cell-based, plate reader, cherry-picked samples, cytotoxicity control, dose response (AID 743446); format: functional
[19] = reduction of Shn3 3'UTR-driven luciferase in osteoblasts – cell-based, Clone20 osteoblasts, firefly luciferase, cherry-picked, dose response (AID 624132); format: functional;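 note: firefly luciferase luminescence from reporter carrying the Shn3 3'UTR in osteoblasts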
HEK293 [20] = assay: EBV LMP1 TES2 canonical NF-kB signalling blockers – cell-based, HEK293, luciferase, cherry-pick, dose response (AID 588343); format: functional; conditions: Homo sapiens
[21] = A549 cell cytotoxicity, dose response, cytotoxicity control, plate reader, cherry-pick, antagonist series (AID 743412); format: functional, cell-based
[22] = target: Protein disulfide-isomerase (Homo sapiens, UniProt P07237); assay: inhibition of PDI-driven insulin aggregation – biochemical, turbidity, absorbance, cherry-picked samples, dose response (AID 602350); format: functional
Protein disulfide-isomerase, sequence (P07237 whole entry): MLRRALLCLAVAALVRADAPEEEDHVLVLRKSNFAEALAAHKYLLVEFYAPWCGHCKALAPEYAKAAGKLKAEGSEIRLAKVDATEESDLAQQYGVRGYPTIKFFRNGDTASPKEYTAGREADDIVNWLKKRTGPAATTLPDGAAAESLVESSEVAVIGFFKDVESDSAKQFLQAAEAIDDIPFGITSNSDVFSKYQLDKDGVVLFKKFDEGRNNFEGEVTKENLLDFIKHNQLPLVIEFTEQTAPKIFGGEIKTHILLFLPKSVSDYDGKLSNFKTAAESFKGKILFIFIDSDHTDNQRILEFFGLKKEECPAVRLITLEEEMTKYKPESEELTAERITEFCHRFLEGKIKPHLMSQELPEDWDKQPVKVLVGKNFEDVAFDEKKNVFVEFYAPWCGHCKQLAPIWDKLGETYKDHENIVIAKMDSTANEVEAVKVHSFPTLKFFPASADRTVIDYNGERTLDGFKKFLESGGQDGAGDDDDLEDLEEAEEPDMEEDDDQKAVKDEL

Latent membrane protein 1, sequence (P03230 whole entry): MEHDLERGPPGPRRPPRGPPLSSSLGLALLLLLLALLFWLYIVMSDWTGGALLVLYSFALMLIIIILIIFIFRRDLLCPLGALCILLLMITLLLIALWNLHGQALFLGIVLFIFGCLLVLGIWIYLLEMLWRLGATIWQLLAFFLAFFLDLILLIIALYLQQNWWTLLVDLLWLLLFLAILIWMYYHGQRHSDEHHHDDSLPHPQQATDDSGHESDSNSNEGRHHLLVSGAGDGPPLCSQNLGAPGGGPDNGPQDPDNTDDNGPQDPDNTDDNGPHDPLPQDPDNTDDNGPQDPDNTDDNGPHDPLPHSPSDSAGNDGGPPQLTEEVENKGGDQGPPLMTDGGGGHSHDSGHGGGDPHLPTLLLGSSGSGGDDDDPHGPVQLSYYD

COc1ccc(C)cc1S(=O)(=O)N(CC(=O)Nc1cc([N+](=O)[O-])ccc1C)c1ccc(C)c(C)c1
AC50 [1]: 29.5 µM (active)

CN(C)c1ccc(/C=C/c2noc(-c3ccccc3O)n2)cc1
IC50 [2]: 1.9 µM (active) | IC50 [3]: 1.7 µM (active) | IC50 (Caspase-3 [4]): 1.3 µM (active) | IC50 [5]: 1.45 µM (active) | IC50 [6]: 2.1 µM (active) | IC50 [7]: 1.42 µM (active) | IC50 (Caspase-3 [8]): 1.16 µM (active)

O=C(CN1C(=O)COc2ccc(S(=O)(=O)N3CCCC3)cc21)NCc1ccccn1
EC50 (HEK293 [9]): > 54.7 µM (inactive) | IC50 (HEK293 [10]): > 89.2 µM (inactive) | EC50 (Insulin-degrading enzyme [11]): > 54.7 µM (inactive) | EC50 (Insulin-degrading enzyme [12]): > 54.7 µM (inactive)

CC(C)(O)C#Cc1ccccc1C(=O)NC(CC(N)=O)C(=O)O (configuration not stated)
EC50 (HEK293 [9]): > 55.9 µM (inactive) | IC50 (HEK293 [10]): > 89.2 µM (inactive) | EC50 (Insulin-degrading enzyme [11]): > 54.7 µM (inactive) | EC50 (Insulin-degrading enzyme [12]): > 54.7 µM (inactive)

CC(C)OC(=O)c1ccc(NCc2cc(O)ccc2O)cc1Cl
AC50 [13]: 49.2 µM (active) | AC50 [14]: 6.42 µM (active) | AC50 [1]: 9.48 µM (active) | AC50 [15]: 4.45 µM (active) | AC50 [16]: 33.5 µM (active) | AC50 [17]: 23.6 µM (active) | AC50 [18]: 4.76 µM (active) | AC50 [19]: 2.15 µM (active) | AC50 (HEK293 [20]): 10.9 µM (active) | AC50 [21]: 17 µM (active)

O=C(NC(Cc1ccc(O)cc1)C(=O)N=Nc1c(O)[nH]c2ccccc12)c1ccccc1 (configuration not stated)
AC50 [22]: 19.5 µM (active)
